# Data reported in patent US20050049242A1 (priority 2000, published 2005).
# Test system: HIV-1NL4-3clone1-D4
# Assay type: cell-based
# Conditions: clones 7-1, 7-3 and 1-D4, FIG. 16a
# Experimental: Cloning and sequencing of virus from the HIVNL4-3 passaged in the presence of 8 μM L-chicoric acid was undertaken to determine the molecular basis for resistance to L-chicoric acid and to isolate a resistant HIV clone.
# This cloning was accomplished through site-directed mutagenesis introducing several silent mutations immediately upstream and downstream of the integrase gene. These mutations generated two unique restriction sites: an upstream SacII and a downstream XbaI (FIG. 15). Introduction of these mutations allowed the entire integrase gene with only minimal upstream and downstream nucleotides to be digested and “swapped” between drug-resistant and drug-sensitive clones.
row,SMILES,sensitivity of the clones to the drug compared with parental HIVNL4-3
1,"Cc1cn([C@H]2C[C@H](N=[N+]=[N-])[C@@H](CO)O2)c(=O)[nH]c1=O [Zidovudine, zidovudine]",same sensitivity

# Test system: HIVNL4-3 M184V
# Assay type: cell-based, HIV-1
# Conditions: Fa 0.2; NL4-3cloneM184V; combined with L-CCA
# Experimental: (§1) For each of these HIV clones, the ED50 was determined for the anti-HIV compounds ZDV, DDC, DDI, the protease inhibitor (PI) Nelfinavir (provided by Agouron Pharmaceuticals, San Diego), and L-CCA.
# (§2) Molecular clones of HIV included wild-type HIVNL4-3, HIVNL4-3 M184V, and HIVNL4-3 JF26/A7, All three clones were a generous gift from P. Krogstad (UCLA, Los Angeles, Calif.). Viruses were initially, transfected in adherent HeLa cells using Lipofectin®. After 48 hours, H9 cells were added. Following 24 hours of co-culture, non-adherent cells were removed and cultured. Cells were monitored by indirect immunofluorescence and RT release as described below until the culture was 100% infected by HIV-1. Supernatant fluids were collected and clarified of cells by low-speed centrifugation followed by filtration through 0.45 μm filters.
# (§3) Anti-HIV activity of compounds was determined both alone and in combination using a cytopathicity based assay as described above. […] The fifty-percent effective dose (ED50) was calculated for triplicate infections. Mean ED50 (shown in FIG. 5) were calculated for each drug against each HIV variant from a minimum of three experiments performed in triplicate.
# (§4) Experiments were designed at a fixed ratio of drugs; the ratio for each drug combination was determined based on the ED50 of each drug alone against each HIV variant. Combination indices were calculated on representative experiments performed in triplicate according to the following formula of Chou and Talalay: fa/fu=(D/Dm)^m
# (§5) Where fa is the fraction affected by the dose, fu is the unaffected fraction, D is the dose of the drug, Dm is the median-effect dose determined to be the x-intercept of the median-effect plot, and m is the sigmoidicity of the dose-effect curve, determined by the slope of the median-effect plot. The median effect plot is based on the following equation: log(fa/fu)=^m log (D)−m log (Dm)
row,SMILES,concentration of the drug in the combination with L-CCA giving Fa [nM]
1,"Nc1ccn([C@H]2CC[C@@H](CO)O2)c(=O)n1 [DDC, 2′,3′-dideoxycytidine]",21.6
2,"Cc1cn([C@H]2C[C@H](N=[N+]=[N-])[C@@H](CO)O2)c(=O)[nH]c1=O [Zidovudine, zidovudine]",4.9

# Same assay, conditions: Fa 0.4; NL4-3cloneM184V; combined with L-CCA
row,SMILES,concentration of the drug in the combination with L-CCA giving Fa [nM]
1,"Nc1ccn([C@H]2CC[C@@H](CO)O2)c(=O)n1 [DDC, 2′,3′-dideoxycytidine]",43.2
2,"Cc1cn([C@H]2C[C@H](N=[N+]=[N-])[C@@H](CO)O2)c(=O)[nH]c1=O [Zidovudine, zidovudine]",10.2

# Same assay, conditions: Fa 0.6; NL4-3cloneM184V; combined with L-CCA
row,SMILES,concentration of the drug in the combination with L-CCA giving Fa [nM]
1,"Nc1ccn([C@H]2CC[C@@H](CO)O2)c(=O)n1 [DDC, 2′,3′-dideoxycytidine]",76.8
2,"Cc1cn([C@H]2C[C@H](N=[N+]=[N-])[C@@H](CO)O2)c(=O)[nH]c1=O [Zidovudine, zidovudine]",18.9

# Same assay, conditions: Fa 0.8; NL4-3cloneM184V; combined with L-CCA
row,SMILES,concentration of the drug in the combination with L-CCA giving Fa [nM]
1,"Nc1ccn([C@H]2CC[C@@H](CO)O2)c(=O)n1 [DDC, 2′,3′-dideoxycytidine]",153.7
2,"Cc1cn([C@H]2C[C@H](N=[N+]=[N-])[C@@H](CO)O2)c(=O)[nH]c1=O [Zidovudine, zidovudine]",39.6

# Same assay, conditions: Fa 0.9; NL4-3cloneM184V; combined with L-CCA
row,SMILES,concentration of the drug in the combination with L-CCA giving Fa [nM]
1,"Nc1ccn([C@H]2CC[C@@H](CO)O2)c(=O)n1 [DDC, 2′,3′-dideoxycytidine]",273
2,"Cc1cn([C@H]2C[C@H](N=[N+]=[N-])[C@@H](CO)O2)c(=O)[nH]c1=O [Zidovudine, zidovudine]",73

# Same assay, conditions: clone with methionine to valine mutation in RT
row,SMILES,susceptibility of the clone to the drug alone
1,"Nc1ccn([C@H]2CC[C@@H](CO)O2)c(=O)n1 [DDC, 2′,3′-dideoxycytidine]",partial resistance

# Test system: HIVNL4-3 clone 7-1
# Assay type: cell-based, HIV-1
# Conditions: Fa 0.2; NL4-3clone7-1; combined with L-CCA
row,SMILES,concentration of the drug in the combination with L-CCA giving Fa [nM]
1,"Nc1ccn([C@H]2CC[C@@H](CO)O2)c(=O)n1 [DDC, 2′,3′-dideoxycytidine]",12.4
2,"Cc1cn([C@H]2C[C@H](N=[N+]=[N-])[C@@H](CO)O2)c(=O)[nH]c1=O [Zidovudine, zidovudine]",2.7

# Same assay, conditions: Fa 0.4; NL4-3clone7-1; combined with L-CCA
row,SMILES,concentration of the drug in the combination with L-CCA giving Fa [nM]
1,"Nc1ccn([C@H]2CC[C@@H](CO)O2)c(=O)n1 [DDC, 2′,3′-dideoxycytidine]",21.1
2,"Cc1cn([C@H]2C[C@H](N=[N+]=[N-])[C@@H](CO)O2)c(=O)[nH]c1=O [Zidovudine, zidovudine]",8.7

# Same assay, conditions: Fa 0.6; NL4-3clone7-1; combined with L-CCA
row,SMILES,concentration of the drug in the combination with L-CCA giving Fa [nM]
1,"Nc1ccn([C@H]2CC[C@@H](CO)O2)c(=O)n1 [DDC, 2′,3′-dideoxycytidine]",32.8
2,"Cc1cn([C@H]2C[C@H](N=[N+]=[N-])[C@@H](CO)O2)c(=O)[nH]c1=O [Zidovudine, zidovudine]",22.9

# Same assay, conditions: Fa 0.8; NL4-3clone7-1; combined with L-CCA
row,SMILES,concentration of the drug in the combination with L-CCA giving Fa [nM]
1,"Nc1ccn([C@H]2CC[C@@H](CO)O2)c(=O)n1 [DDC, 2′,3′-dideoxycytidine]",56.0
2,"Cc1cn([C@H]2C[C@H](N=[N+]=[N-])[C@@H](CO)O2)c(=O)[nH]c1=O [Zidovudine, zidovudine]",73.8

# Same assay, conditions: Fa 0.9; NL4-3clone7-1; combined with L-CCA
row,SMILES,concentration of the drug in the combination with L-CCA giving Fa [nM]
1,"Nc1ccn([C@H]2CC[C@@H](CO)O2)c(=O)n1 [DDC, 2′,3′-dideoxycytidine]",87.1
2,"Cc1cn([C@H]2C[C@H](N=[N+]=[N-])[C@@H](CO)O2)c(=O)[nH]c1=O [Zidovudine, zidovudine]",194

# Same assay, conditions: HIVNL4-3 clone 7-1
row,SMILES,susceptibility of the clone to the drug alone
1,"Nc1ccn([C@H]2CC[C@@H](CO)O2)c(=O)n1 [DDC, 2′,3′-dideoxycytidine]",increased susceptibility

# Test system: HIVNL4-3 JF26/A7
# Conditions: Fa 0.2; NL4-3cloneJF26/A7; combined with L-CCA
# Experimental: as §1, §2, §3, §4, §5
row,SMILES,concentration of the drug in the combination with L-CCA giving Fa [nM]
1,"Nc1ccn([C@H]2CC[C@@H](CO)O2)c(=O)n1 [DDC, 2′,3′-dideoxycytidine]",13.0
2,"Cc1cn([C@H]2C[C@H](N=[N+]=[N-])[C@@H](CO)O2)c(=O)[nH]c1=O [Zidovudine, zidovudine]",150.2

# Same assay, conditions: Fa 0.4; NL4-3cloneJF26/A7; combined with L-CCA
row,SMILES,concentration of the drug in the combination with L-CCA giving Fa [nM]
1,"Nc1ccn([C@H]2CC[C@@H](CO)O2)c(=O)n1 [DDC, 2′,3′-dideoxycytidine]",23.8
2,"Cc1cn([C@H]2C[C@H](N=[N+]=[N-])[C@@H](CO)O2)c(=O)[nH]c1=O [Zidovudine, zidovudine]",259.8

# Same assay, conditions: Fa 0.6; NL4-3cloneJF26/A7; combined with L-CCA
row,SMILES,concentration of the drug in the combination with L-CCA giving Fa [nM]
1,"Nc1ccn([C@H]2CC[C@@H](CO)O2)c(=O)n1 [DDC, 2′,3′-dideoxycytidine]",39.2
2,"Cc1cn([C@H]2C[C@H](N=[N+]=[N-])[C@@H](CO)O2)c(=O)[nH]c1=O [Zidovudine, zidovudine]",409

# Same assay, conditions: Fa 0.8; NL4-3cloneJF26/A7; combined with L-CCA
row,SMILES,concentration of the drug in the combination with L-CCA giving Fa [nM]
1,"Nc1ccn([C@H]2CC[C@@H](CO)O2)c(=O)n1 [DDC, 2′,3′-dideoxycytidine]",71.8
2,"Cc1cn([C@H]2C[C@H](N=[N+]=[N-])[C@@H](CO)O2)c(=O)[nH]c1=O [Zidovudine, zidovudine]",707

# Same assay, conditions: Fa 0.9; NL4-3cloneJF26/A7; combined with L-CCA
row,SMILES,concentration of the drug in the combination with L-CCA giving Fa [nM]
1,"Nc1ccn([C@H]2CC[C@@H](CO)O2)c(=O)n1 [DDC, 2′,3′-dideoxycytidine]",118
2,"Cc1cn([C@H]2C[C@H](N=[N+]=[N-])[C@@H](CO)O2)c(=O)[nH]c1=O [Zidovudine, zidovudine]",1112

# Same assay, conditions: HIVNL4-3 JF26/A7
row,SMILES,susceptibility of the clone to the drug alone
1,"Cc1cn([C@H]2C[C@H](N=[N+]=[N-])[C@@H](CO)O2)c(=O)[nH]c1=O [Zidovudine, zidovudine]",highly resistant
